Patent publication US9913843B2, “Protein kinase C inhibitors and uses thereof” (Rigel Pharmaceuticals, Inc., priority 2012, dated 2018)
Like-named read-outs stand apart in the source and are kept apart here.

System: PKC mediated IL-2 production in human primary T cells
Experiment: IL-2 ELISA, human primary T cell, anti CD3+CD28+ (whole cell functional assay for PKC mediated IL-2 production)
Assay type: cell-based
In short: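 Primary human T cells (PBMC-derived, expanded on plate-bound anti-CD3/CD28 with IL-2, then IL-2-washed) were pre-incubated 1 h at 37 °C with compound, then stimulated on 1 μg/ml anti-CD3 plus 5 μg/ml anti-CD28. After 24 h at 37 °C, secreted IL-2 was measured by ELISA; counter assay used 0.5 ng/ml PMA plus 0.1 μM ionomycin (final).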

[1] = 24 h, human primary T cells stimulated with anti-CD3 + anti-CD28, IL-2 by ELISA, read-out: IC50 for blocking IL-2 production
[2] = human primary T cells stimulated with anti-CD3 + anti-CD28, 24 h, IL-2 by ELISA, 8 pt, read-out: IL2 ELISA, Human primary T cell, anti-CD3 + CD28, 8 pt (IC50)

Structure (SMILES) | IC50 [1] [µM] | IC50 [2] [µM]
CC(O)COc1ccc(Nc2ncc(C#N)c(NC[C@@H]3CCCN4CCCC[C@H]34)n2)cc1C#N (stereo partly drawn) [Compound 144, 2-((3-cyano-4-(2-hydroxypropoxy)phenyl)amino)-4-((((1S,9aR)-octahydro-2H-quinolizin-1-yl)methyl)amino)pyrimidine-5-carbonitrile] | < 30 | 12.4
CC(O)COc1ccc(Nc2ncc(F)c(NC[C@@H]3CCCN4CCCC[C@H]34)n2)cc1C#N (stereo partly drawn) [Compound 145, 5-((5-fluoro-4-((((1S,9aR)-octahydro-2H-quinolizin-1-yl)methyl)amino)pyrimidin-2-yl)amino)-2-(2-hydroxypropoxy)benzonitrile] | < 30 | 4.63
Cn1nnn(-c2cc(Nc3ncc(Cl)c(NC[C@@H]4CCCN5CCCC[C@H]45)n3)c(F)cc2O)c1=O [Compound 146, 1-(5-((5-chloro-4-((((1S,9aR)-octahydro-2H-quinolizin-1-yl)methyl)amino)pyrimidin-2-yl)amino)-4-fluoro-2-hydroxyphenyl)-4-methyl-1,4-dihydro-5H-tetrazol-5-one] | < 30 | 1.98
Cn1nnn(-c2cc(Nc3ncc(F)c(NC[C@@H]4CCCN5CCCC[C@H]45)n3)c(F)cc2O)c1=O [Compound 147, 1-(5-((5-fluoro-4-((((1S,9aR)-octahydro-2H-quinolizin-1-yl)methyl)amino)pyrimidin-2-yl)amino)-4-fluoro-2-hydroxyphenyl)-4-methyl-1,4-dihydro-5H-tetrazol-5-one] | < 30 | 5.06
Cn1nnn(-c2cc(Nc3ncc(F)c(NC[C@@H]4CCCN5CCCC[C@H]45)n3)c(F)cc2OC(C)(C)CO)c1=O [Compound 148, 1-(4-fluoro-5-((5-fluoro-4-((((1S,9aR)-octahydro-2H-quinolizin-1-yl)methyl)amino)pyrimidin-2-yl)amino)-2-((1-hydroxy-2-methylpropan-2-yl)oxy)phenyl)-4-methyl-1,4-dihydro-5H-tetrazol-5-one] | < 30 | 1.59
C[C@H](O)COc1cc(F)c(Nc2ncc(F)c(NC[C@@H]3CCCN4CCCC[C@H]34)n2)cc1-n1nnn(C)c1=O [Compound 149, 1-(4-fluoro-5-((5-fluoro-4-((((1S,9aR)-octahydro-2H-quinolizin-1-yl)methyl)amino)pyrimidin-2-yl)amino)-2-((S)-2-hydroxypropoxy)phenyl)-4-methyl-1,4-dihydro-5H-tetrazol-5-one] | < 30 | 0.266
CCOC(=O)C(C)(C)Oc1cc(F)c(Nc2ncc(C#N)c(NC[C@@H]3CCCN4CCCC[C@H]34)n2)cc1-n1nnn(C)c1=O [Compound 150, ethyl 2-(4-((5-cyano-4-((((1S,9aR)-octahydro-2H-quinolizin-1-yl)methyl)amino)pyrimidin-2-yl)amino)-5-fluoro-2-(4-methyl-5-oxo-4,5-dihydro-1H-tetrazol-1-yl)phenoxy)-2-methylpropanoate] | < 30 | 1.14
Cn1nnn(-c2cc(Nc3ncc(C#N)c(NC[C@@H]4CCCN5CCCC[C@H]45)n3)c(F)cc2OC(C)(C)CO)c1=O [Compound 151, 2-((2-fluoro-4-((1-hydroxy-2-methylpropan-2-yl)oxy)-5-(4-methyl-5-oxo-4,5-dihydro-1H-tetrazol-1-yl)phenyl)amino)-4-((((1S,9aR)-octahydro-2H-quinolizin-1-yl)methyl)amino)pyrimidine-5-carbonitrile] | < 30 | 0.305
C[C@H](O)COc1cc(F)c(Nc2ncc(Cl)c(NC[C@@H]3CCCN4CCCC[C@H]34)n2)cc1-n1nnn(C)c1=O [Compound 152, 1-(5-((5-chloro-4-((((1S,9aR)-octahydro-2H-quinolizin-1-yl)methyl)amino)pyrimidin-2-yl)amino)-4-fluoro-2-((S)-2-hydroxypropoxy)phenyl)-4-methyl-1,4-dihydro-5H-tetrazol-5-one] | < 30 | 0.0898

Next, values leading:

IC50 [1] [µM] | IC50 [2] [µM] | Structure (SMILES)
< 30 | 0.176 | CC(O)COc1cc(F)c(Nc2ncc(C#N)c(NC[C@@H]3CCCN4CCCC[C@H]34)n2)cc1-n1nnn(C)c1=O (stereo partly drawn) [Compound 136, 2-((2-fluoro-4-(2-hydroxypropoxy)-5-(4-methyl-5-oxo-4,5-dihydro-1H-tetrazol-1-yl)phenyl)amino)-4-((((1S,9aR)-octahydro-2H-quinolizin-1-yl)methyl)amino)pyrimidine-5-carbonitrile]
< 30 | – | [2H]C([2H])(O)C([2H])([2H])Oc1cc(F)c(Nc2ncc(C#N)c(NC[C@@H]3CCCN4CCCC[C@H]34)n2)cc1-n1nnn(C)c1=O [Compound 137, 2-((2-fluoro-4-(2-hydroxyethoxy-1,1,2,2-d4)-5-(4-methyl-5-oxo-4,5-dihydro-1H-tetrazol-1-yl)phenyl)amino)-4-((((1S,9aR)-octahydro-2H-quinolizin-1-yl)methyl)amino)pyrimidine-5-carbonitrile]
< 30 | 0.0493 | OCCOc1ccc(Nc2ncc(F)c(NC[C@@H]3CCCN4CCCC[C@H]34)n2)cc1-n1cnnn1 [Compound 138, 2-(4-((5-fluoro-4-((((1S,9aR)-octahydro-2H-quinolizin-1-yl)methyl)amino)pyrimidin-2-yl)amino)-2-(1H-tetrazol-1-yl)phenoxy)ethan-1-ol]
< 30 | 0.0175 | OCCOc1ccc(Nc2ncc(Cl)c(NC[C@@H]3CCCN4CCCC[C@H]34)n2)cc1-n1cnnn1 [Compound 139, 2-(4-((5-chloro-4-((((1S,9aR)-octahydro-2H-quinolizin-1-yl)methyl)amino)pyrimidin-2-yl)amino)-2-(1H-tetrazol-1-yl)phenoxy)ethan-1-ol]
< 30 | 0.0276 | N#Cc1cnc(Nc2ccc(OCCO)c(-n3cnnn3)c2)nc1NC[C@@H]1CCCN2CCCC[C@H]12 [Compound 140, 2-((4-(2-hydroxyethoxy)-3-(1H-tetrazol-1-yl)phenyl)amino)-4-((((1S,9aR)-octahydro-2H-quinolizin-1-yl)methyl)amino)pyrimidine-5-carbonitrile]
< 30 | 3.55 | OCCOc1ccc(Nc2nccc(NC[C@@H]3CCCN4CCCC[C@H]34)n2)cc1-n1cnnn1 [Compound 141, 2-(4-((4-((((1S,9aR)-octahydro-2H-quinolizin-1-yl)methyl)amino)pyrimidin-2-yl)amino)-2-(1H-tetrazol-1-yl)phenoxy)ethan-1-ol]
< 30 | 0.0662 | C[C@H](O)COc1cc(F)c(Nc2ncc(C#N)c(NC[C@@H]3CCCN4CCCC[C@H]34)n2)cc1-n1nnn(C)c1=O [Compound 142, 2-((2-fluoro-4-((S)-2-hydroxypropoxy)-5-(4-methyl-5-oxo-4,5-dihydro-1H-tetrazol-1-yl)phenyl)amino)-4-((((1 S,9aR)-octahydro-2H-quinolizin-1-yl)methyl)amino)pyrimidine-5-carbonitrile]
< 30 | 0.147 | C[C@@H](O)COc1cc(F)c(Nc2ncc(C#N)c(NC[C@@H]3CCCN4CCCC[C@H]34)n2)cc1-n1nnn(C)c1=O [Compound 143, 2-((2-fluoro-4-((R)-2-hydroxypropoxy)-5-(4-methyl-5-oxo-4,5-dihydro-1H-tetrazol-1-yl)phenyl)amino)-4-((((1S,9aR)-octahydro-2H-quinolizin-1-yl)methyl)amino)pyrimidine-5-carbonitrile]
